{"source": "patent US10385061B2", "about": "“Medicarpin, its derivatives, manufacturing method thereof” (PhytoHealth Corporation, priority 2016, dated 2019)", "key": {"[1]": {"tested_on": "erythroid progenitor cells", "assay": "Hemoglobin colorimetric assay of bone marrow cells (erythroid progenitor differentiation)", "format": "cell-based, mouse", "settings": "low concentration (0.1 to 10 μg/mL), 96 hours, A610", "experimental": "C57BL/6J male mice (6 weeks old) were used in this Example to collect bone marrow cells. The hind legs were of mice were obtained to remove excess flesh from the leg bone and cut off the ends of the bones. The bones were flushed with α-MEM medium using 23-gauge needle to elute bone marrow cells, and then filtrated by No. 53 nylon mesh filter to obtain the bone marrow cells solution.\n96-well plates (U-bottom shape) were centrifuged at 1200 rpm (Kubota 6800) at 25° C. for 5 minutes. After centrifugation, the supernatant was removed and the bone marrow cells were mixed equally with 50 μL lysis buffer (0.01% NP-40) for 10 minutes. Then, 150 μL of 500 μM DAF (2,7-Diaminofluorene, Sigma-Aldrich) solution and 6 μL of 30% H2O2 were added and treated with the bone marrow cells for 5 minutes, and absorbance at 610 nm (A610) was determined. Student's t-test were used to compare data."}, "[2]": {"tested_on": "cisplatin-induced nephropathic mice", "assay": "Cisplatin-induced nephropathic mice model", "format": "in vivo", "method": "C57BL/6J male mice (8 to 10 weeks old) were injected i.p. (Intraperitoneal) with three doses of cisplatin (CDDP) (Sigma-Aldrich), following the scheme of 7, 6 and 7 mg/kg body weight, at 1, 5, 10 day, and the normal group (n=6) was injected with saline. On day 12, serum samples were collected and assayed for blood urea nitrogen content (BUN). Mice with BUN values greater than 100 mg/100 mL were chosen for the experiment. […] The mice were (BUN=80-300 mg/dL) subsequently divided randomly into four cohorts comprising the control and three medicarpin-treated groups, medicarpin 10, 30, 90 mg/kg/day (CDDP+Med 10, CDDP+Med 30, CDDP+Med 90) (n=6 for each group) for an additional 2 weeks. Blood samples from all the mice were collected on day 12. The red blood cell (RBC) numbers were determined from the complete blood cell count using a Sysmex Kx-21 haematology analyser (Sysmex America Inc., Mundelein, Ill., USA), and the serum BUN levels were determined through the urease GLDH method using a commercial kit (DiaSys Diagnostic System GmbH, Frankfurt, Germany). The administration and blood collection schedules were carried out according to the FIG. 4. […] However, the number of RBC in control group without medicarpin treatment was still low. […] The number of WBCs was recovered in the mice after 2 week of medicarpin treatment. […] Similarly, the number of platelet (PLT) also was decreased by cisplatin. […] (FIG. 5D).\nOne month after treatment of medicarpin, the expression of EPO was increased in liver (FIG. 7A) and kidney (FIG. 7B) of mice."}, "doxorubicin-induced mice": {"tested_on": "doxorubicin-induced mice", "assay": "Treadmill endurance assessment under normoxic or hypoxic conditions", "format": "in vivo", "settings": "3 weeks administration, normoxic and hypoxic (8% O2) conditions, dose-dependent", "method": "Before being divided into treatment groups, 8 to 10 week-old C57B1/6J male mice were trained on a treadmill for a maximum of 10 min for each of three consecutive training sessions per day for 3 days. […] On the testing day, each mouse was subjected to three trials on the treadmill at under a normoxic or hypoxic (8% O2) atmosphere. The endurance performance was measured over time until the mice suffered from electric shock over 35 times/min (electric shock system is on the end of the treadmill). The maximum trial length was 60 min and there was a 30-min rest period between each trial. (Table 2)"}, "[3]": {"tested_on": "dox-induced cardiomyopathic mice", "settings": "for EF (Ejection fraction) / FS (Fractional shortening) / IVS; d / IVS; s / LVID; d / LVID; s / LVPW; d / LVPW; s: week 3, mean±SEM", "experimental": "C57BL/6J male mice (6 to 8 weeks old) were injected intraperitoneally with triple dose of 5, 5, or 8 mg/kg doxorubicin-HCl (Sigma-Aldrich), respectively. In control group, the mice (n=6) were injected intraperitoneally with saline. 1 week after injection, the degree of heart failure was determined by the increase of S-T segment in electrocardiogram, and then the mice were randomly reclassified into the control group (Dox/Ctrl, n=9) and experimental group (Dox+Med) (FIG. 9). In the experimental group, the mice were fed a diet containing 10, 30, or 90 mg/kg/day medicarpin, respectively. Each experiment group consisted of 7 mice. After feedings, the mice were subjected to the rotarod endurance test, echocardiography and electrocardiogram.\nThe mice from all treatment groups were anaesthetized with isoflurane (0.75-1.5% inhalation); and echocardiographic measurements were taken in M-mode in triplicate for each mouse using an ATL HDI 5000 ultrasound system (Philips Medical Systems, ATL Ultrasound, Bothell, Wash., USA)."}}, "note": "Read-outs that look alike come from different tables or passages of the source."}
{"substance": "(+)-Medicarpin", "values": [{"measurement": "differentiation of erythroid progenitor cells", "setting": "[1]", "value": "enhanced"}, {"measurement": "BUN levels", "setting": "[2]; 30 and 90 mg/kg treatment groups", "value": "significantly recovered"}, {"measurement": "recovery of anaemia (RBC number)", "setting": "[2]; 30 and 90 mg/kg, day 33", "value": "almost complete recovery"}, {"measurement": "white blood cell (WBC) number", "setting": "[2]; 30 and 90 mg/kg, week 3 to 4", "value": "significant recovery"}, {"measurement": "renal function", "setting": "[2]; 30 or 90 mg/kg", "value": "accelerated the recovery"}, {"measurement": "amount of hemoglobin and number of functional RBC", "setting": "[2]; high-middle dose", "value": "increased"}, {"measurement": "renal function", "setting": "[2]; low-dose 10 mg/kg", "value": "could not improve"}, {"measurement": "HGF expression in liver", "setting": "[2]; one month after treatment", "value": "increase"}, {"measurement": "expression of EPO in liver and kidney", "setting": "[2]; one month after treatment", "value": "increased"}, {"measurement": "number of platelet (PLT)", "setting": "[2]; vs CDDP/Ctrl group after its recovery from cisplatin", "value": "no significant difference"}, {"measurement": "endurance performance to exhaustion", "setting": "doxorubicin-induced mice", "value": "enhanced"}, {"measurement": "prolonged S-T interval", "setting": "[3]; 90 mg/kg/day, one week after treatment, electrocardiogram", "value": "improved"}, {"measurement": "ejection fractions and fractional shortening", "setting": "[3]; 30 and 90 mg/kg, vs doxorubicin alone", "value": "significantly greater"}, {"measurement": "EF (Ejection fraction)", "setting": "[3]; Dox + Med10 (10 mg/kg/day)", "value": "58.44 ± 2.55", "unit": "%"}, {"measurement": "FS (Fractional shortening)", "setting": "[3]; Dox + Med10 (10 mg/kg/day)", "value": "30.32 ± 1.56", "unit": "%"}, {"measurement": "IVS; d", "setting": "[3]; Dox + Med10 (10 mg/kg/day)", "value": "0.85 ± 0.03", "unit": "mm"}, {"measurement": "IVS; s", "setting": "[3]; Dox + Med10 (10 mg/kg/day)", "value": "1.20 ± 0.03", "unit": "mm"}, {"measurement": "LVID; d", "setting": "[3]; Dox + Med10 (10 mg/kg/day)", "value": "3.70 ± 0.34"}, {"measurement": "LVID; s", "setting": "[3]; Dox + Med10 (10 mg/kg/day)", "value": "2.58 ± 0.27"}, {"measurement": "LVPW; d", "setting": "[3]; Dox + Med10 (10 mg/kg/day)", "value": "0.69 ± 0.10"}, {"measurement": "LVPW; s", "setting": "[3]; Dox + Med10 (10 mg/kg/day)", "value": "1.00 ± 0.07"}, {"measurement": "EF (Ejection fraction)", "setting": "[3]; Dox + Med30 (30 mg/kg/day)", "value": "75.07 ± 2.29", "unit": "%"}, {"measurement": "FS (Fractional shortening)", "setting": "[3]; Dox + Med30 (30 mg/kg/day)", "value": "43.04 ± 2.03", "unit": "%"}, {"measurement": "IVS; d", "setting": "[3]; Dox + Med30 (30 mg/kg/day)", "value": "0.81 ± 0.04", "unit": "mm"}, {"measurement": "IVS; s", "setting": "[3]; Dox + Med30 (30 mg/kg/day)", "value": "1.19 ± 0.02", "unit": "mm"}, {"measurement": "LVID; d", "setting": "[3]; Dox + Med30 (30 mg/kg/day)", "value": "3.33 ± 0.07"}, {"measurement": "LVID; s", "setting": "[3]; Dox + Med30 (30 mg/kg/day)", "value": "1.89 ± 0.06"}, {"measurement": "LVPW; d", "setting": "[3]; Dox + Med30 (30 mg/kg/day)", "value": "0.74 ± 0.04"}, {"measurement": "LVPW; s", "setting": "[3]; Dox + Med30 (30 mg/kg/day)", "value": "1.26 ± 0.07"}, {"measurement": "EF (Ejection fraction)", "setting": "[3]; Dox + Med90 (90 mg/kg/day)", "value": "72.92 ± 2.72", "unit": "%"}, {"measurement": "FS (Fractional shortening)", "setting": "[3]; Dox + Med90 (90 mg/kg/day)", "value": "41.19 ± 2.07", "unit": "%"}, {"measurement": "IVS; d", "setting": "[3]; Dox + Med90 (90 mg/kg/day)", "value": "0.86 ± 0.05", "unit": "mm"}, {"measurement": "IVS; s", "setting": "[3]; Dox + Med90 (90 mg/kg/day)", "value": "1.29 ± 0.09", "unit": "mm"}, {"measurement": "LVID; d", "setting": "[3]; Dox + Med90 (90 mg/kg/day)", "value": "3.30 ± 0.11"}, {"measurement": "LVID; s", "setting": "[3]; Dox + Med90 (90 mg/kg/day)", "value": "1.94 ± 0.12"}, {"measurement": "LVPW; d", "setting": "[3]; Dox + Med90 (90 mg/kg/day)", "value": "0.77 ± 0.06"}, {"measurement": "LVPW; s", "setting": "[3]; Dox + Med90 (90 mg/kg/day)", "value": "1.15 ± 0.08"}, {"measurement": "expression of EPO in kidney and heart", "setting": "[3]; doxorubicin-induced mice", "value": "recovered and increased"}, {"measurement": "cardiomyocytes atrophy or hypertrophy, cytoplasmic vacuolization, myofibrillar loss, myocardial fibrosis (histology)", "setting": "[3]; middle-high dosed treatment", "value": "significantly ameliorated"}, {"measurement": "left ventricular posterior wall thickness (LVPWs)", "setting": "[3]; middle-high doses", "value": "increased"}, {"measurement": "influence to renal function", "setting": "[3]; mouse, in vivo", "value": "no influence"}, {"measurement": "heart rate (beats per second)", "setting": "[3]; three weeks after treatment", "value": "recovered to normal"}]}
